Experimental data: ChEMBL document CHEMBL5608163, “Structure modification of anoplin for fighting resistant bacteria” (Eur J Med Chem, 2024)
≈ marks a conversion by molar mass, not a printed value. Square brackets hold non-standard residues; d marks the D form. Peptide text beside a SMILES is read from it. Gly(N(CH2)2(3-indolyl)) = O=C(O)CNCCc1c[nH]c2ccccc12; N(1-naphthylmethyl)Gly = O=C(O)CNCc1cccc2ccccc12; N(iPr)Gly = CC(C)NCC(=O)O; βAla = NCCC(=O)O

Tests used:
[1] = test system: Staphylococcus aureus; test: Antibacterial activity against Staphylococcus aureus ATCC 25923 assessed as reduction in bacterial growth incubated for 18 to 20 hrs by Mueller Hinton broth dilution method; assay type: functional; conditions: time 18-20 hrs
[2] = test system: Bacillus subtilis; test: Antibacterial activity against Bacillus subtilis ATCC 23857 assessed as reduction in bacterial growth incubated for 18 to 20 hrs by Mueller Hinton broth dilution method; assay type: functional; conditions: time 18-20 hrs
[3] = test system: Escherichia coli; test: Antibacterial activity against Escherichia coli ATCC 25922 assessed as reduction in bacterial growth incubated for 18 to 20 hrs by Mueller Hinton broth dilution method; assay type: functional; conditions: time 18-20 hrs
[4] = test system: Pseudomonas aeruginosa; test: Antibacterial activity against Pseudomonas aeruginosa ATCC 27853 assessed as reduction in bacterial growth incubated for 18 to 20 hrs by Mueller Hinton broth dilution method; assay type: functional; conditions: time 18-20 hrs
[5] = test system: Klebsiella pneumoniae; test: Antimicrobial activity against Klebsiella pneumoniae assessed as reduction in bacterial growth incubated for 18 to 20 hrs by Mueller-Hinton broth based microdilution method; assay type: functional; conditions: time 18-20 hrs
[6] = test system: Erythrocyte; test: Hemolytic activity in mouse Red blood cells incubated for 1 hr by microplate reader assay; assay type: toxicity, cell-based; conditions: erythrocyte, 1 h
[7] = test system: Staphylococcus aureus; test: Antibacterial activity against Staphylococcus aureus ATCC 25923 assessed as reduction in bacterial cell growth incubated for 18 hrs by two fold serial microdilution method; assay type: functional
[8] = test system: Staphylococcus epidermidis; test: Antibacterial activity against Staphylococcus epidermidis ATCC 12228 assessed as reduction in bacterial cell growth incubated for 18 hrs by two fold serial microdilution method; assay type: functional
[9] = test system: Escherichia coli; test: Antibacterial activity against Escherichia coli ATCC 25922 assessed as reduction in bacterial cell growth incubated for 18 hrs by two fold serial microdilution method; assay type: functional
[10] = test system: Pseudomonas aeruginosa; test: Antibacterial activity against Pseudomonas aeruginosa ATCC 27853 assessed as reduction in bacterial cell growth incubated for 18 hrs by two fold serial microdilution method; assay type: functional
[11] = test system: Klebsiella pneumoniae; test: Antibacterial activity against Klebsiella pneumoniae ATCC 700603 assessed as reduction in bacterial cell growth incubated for 18 hrs by two fold serial microdilution method; assay type: functional
[12] = test system: Acinetobacter baumannii; test: Antibacterial activity against Acinetobacter baumannii ATCC 19606 assessed as inhibition in bacterial growth incubated for 20 to 24 hrs by CLSI based broth microdilution method; assay type: functional; conditions: time 20-24 hrs
[13] = test system: Erythrocyte; test: Hemolytic activity in mouse Red blood cells incubated for 1 hr; assay type: toxicity, cell-based
[14] = test system: Staphylococcus aureus; test: Antimicrobial activity against Staphylococcus aureus assessed as reduction in microbial growth by broth microdilution method; assay type: functional
[15] = test system: Escherichia coli; test: Antimicrobial activity against Escherichia coli assessed as reduction in microbial growth by broth micro-dilution method; assay type: functional
[16] = test system: Erythrocyte; test: Hemolytic activity in mouse RBC; assay type: toxicity, cell-based

SMILES	MIC [1]	MIC [2]	MIC [3]	MIC [4]	MIC [5]	HC10 [6]	MIC [7]	MIC [8]	MIC [9]	MIC [10]	MIC [11]	MIC [12]	HC10 [13]	MIC [14]	MIC [15]	HC10 [16]
CC[C@H](C)[C@H](NC(=O)[C@@H](CCCNC(=N)N)NC(=O)[C@H](CCCCN)NC(=O)[C@H](CC(C)C)NC(=O)[C@H](CC(C)C)NC(=O)CN)C(=O)N[C@@H](CCCCN)C(=O)N[C@@H](C(=O)N[C@@H](CC(C)C)C(=O)N[C@@H](CC(C)C)C(N)=O)[C@H](C)O	> 256 µM	32 µM (≈ 36.9 µg/mL)	256 µM (≈ 295 µg/mL)	128 µM (≈ 148 µg/mL)	> 256 µM	> 300 µM	–	–	–	–	–	–	–	–	–	–
CC[C@H](C)[C@H](NC(=O)[C@H](CCCNC(=N)N)NC(=O)[C@H](CCCCN)NC(=O)[C@H](CC(C)C)NC(=O)[C@H](CC(C)C)NC(=O)CN)C(=O)N[C@H](CCCCN)C(=O)N[C@@H](C(=O)N[C@@H](CC(C)C)C(=O)N[C@@H](CC(C)C)C(N)=O)[C@H](C)O	> 256 µM	64 µM (≈ 73.8 µg/mL)	> 25 µM	128 µM (≈ 148 µg/mL)	> 256 µM	> 300 µM	–	–	–	–	–	–	–	–	–	–
CC[C@H](C)[C@H](NC(=O)[C@H](CCCNC(=N)N)NC(=O)[C@H](CCCCN)NC(=O)[C@H](CC(C)C)NC(=O)[C@H](CC(C)C)NC(=O)CN)C(=O)N[C@@H](CCCCN)C(=O)N[C@H](C(=O)N[C@@H](CC(C)C)C(=O)NCCC(N)=O)[C@@H](C)O (H-GLLKRIKTL[βAla]-NH2)	–	–	–	–	–	–	> 128 µM	> 128 µM	> 128 µM	> 128 µM	> 128 µM	> 128 µM	> 256 µM	–	–	–
CC[C@H](C)[C@H](NC(=O)[C@H](CCCNC(=N)N)NC(=O)[C@H](CCCCN)NC(=O)[C@H](CC(C)C)NC(=O)[C@H](CC(C)C)NC(=O)CN)C(=O)N[C@@H](CCCCN)C(=O)N[C@H](C(=O)NCCC(=O)N[C@@H](CC(C)C)C(N)=O)[C@@H](C)O (H-GLLKRIKT[βAla]L-NH2)	–	–	–	–	–	–	> 128 µM	> 128 µM	> 128 µM	> 128 µM	> 128 µM	> 128 µM	> 256 µM	–	–	–
CC[C@H](C)[C@H](NC(=O)[C@H](CCCNC(=N)N)NC(=O)[C@H](CCCCN)NC(=O)[C@H](CC(C)C)NC(=O)[C@H](CC(C)C)NC(=O)CN)C(=O)N[C@@H](CCCCN)C(=O)NCCC(=O)N[C@@H](CC(C)C)C(=O)N[C@@H](CC(C)C)C(N)=O (H-GLLKRIK[βAla]LL-NH2)	–	–	–	–	–	–	128 µM (≈ 144 µg/mL)	16 µM (≈ 18 µg/mL)	32 µM (≈ 36 µg/mL)	4 µM (≈ 4.49 µg/mL)	128 µM (≈ 144 µg/mL)	> 128 µM	> 256 µM	–	–	–
CC[C@H](C)[C@H](NC(=O)[C@H](CCCNC(=N)N)NC(=O)[C@H](CCCCN)NC(=O)[C@H](CC(C)C)NC(=O)[C@H](CC(C)C)NC(=O)CN)C(=O)NCCC(=O)N[C@H](C(=O)N[C@@H](CC(C)C)C(=O)N[C@@H](CC(C)C)C(N)=O)[C@@H](C)O (H-GLLKRI[βAla]TLL-NH2)	–	–	–	–	–	–	64 µM (≈ 70.2 µg/mL)	32 µM (≈ 35.1 µg/mL)	64 µM (≈ 70.2 µg/mL)	32 µM (≈ 35.1 µg/mL)	128 µM (≈ 140 µg/mL)	> 128 µM	> 256 µM	–	–	–
CC(C)C[C@H](NC(=O)[C@H](CC(C)C)NC(=O)[C@@H](NC(=O)[C@H](CCCCN)NC(=O)CCNC(=O)[C@H](CCCNC(=N)N)NC(=O)[C@H](CCCCN)NC(=O)[C@H](CC(C)C)NC(=O)[C@H](CC(C)C)NC(=O)CN)[C@@H](C)O)C(N)=O (H-GLLKR[βAla]KTLL-NH2)	–	–	–	–	–	–	> 128 µM	> 128 µM	> 128 µM	> 128 µM	> 128 µM	> 128 µM	> 256 µM	–	–	–
CC[C@H](C)[C@H](NC(=O)CCNC(=O)[C@H](CCCCN)NC(=O)[C@H](CC(C)C)NC(=O)[C@H](CC(C)C)NC(=O)CN)C(=O)N[C@@H](CCCCN)C(=O)N[C@H](C(=O)N[C@@H](CC(C)C)C(=O)N[C@@H](CC(C)C)C(N)=O)[C@@H](C)O (H-GLLK[βAla]IKTLL-NH2)	–	–	–	–	–	–	> 128 µM	32 µM (≈ 34.2 µg/mL)	> 128 µM	16 µM (≈ 17.1 µg/mL)	> 128 µM	> 128 µM	> 256 µM	–	–	–
CC[C@H](C)[C@H](NC(=O)[C@H](CCCNC(=N)N)NC(=O)CCNC(=O)[C@H](CC(C)C)NC(=O)[C@H](CC(C)C)NC(=O)CN)C(=O)N[C@@H](CCCCN)C(=O)N[C@H](C(=O)N[C@@H](CC(C)C)C(=O)N[C@@H](CC(C)C)C(N)=O)[C@@H](C)O (H-GLL[βAla]RIKTLL-NH2)	–	–	–	–	–	–	> 128 µM	64 µM (≈ 70.2 µg/mL)	128 µM (≈ 140 µg/mL)	32 µM (≈ 35.1 µg/mL)	> 128 µM	> 128 µM	> 256 µM	–	–	–
CC[C@H](C)[C@H](NC(=O)[C@H](CCCNC(=N)N)NC(=O)[C@H](CCCCN)NC(=O)CCNC(=O)[C@H](CC(C)C)NC(=O)CN)C(=O)N[C@@H](CCCCN)C(=O)N[C@H](C(=O)N[C@@H](CC(C)C)C(=O)N[C@@H](CC(C)C)C(N)=O)[C@@H](C)O (H-GL[βAla]KRIKTLL-NH2)	–	–	–	–	–	–	> 128 µM	> 128 µM	> 128 µM	32 µM (≈ 35.6 µg/mL)	> 128 µM	> 128 µM	> 256 µM	–	–	–
CC[C@H](C)[C@H](NC(=O)[C@H](CCCNC(=N)N)NC(=O)[C@H](CCCCN)NC(=O)[C@H](CC(C)C)NC(=O)[C@H](CC(C)C)NC(=O)CNCCc1c[nH]c2ccccc12)C(=O)N[C@@H](CCCCN)C(=O)N[C@H](C(=O)N[C@@H](CC(C)C)C(=O)N[C@@H](CC(C)C)C(N)=O)[C@@H](C)O (H-[Gly(N(CH2)2(3-indolyl))]LLKRIKTLL-NH2)	–	–	–	–	–	–	–	–	–	–	–	–	–	50 µM	25 µM	> 50 µM
CC[C@H](C)[C@H](NC(=O)[C@H](CCCNC(=N)N)NC(=O)[C@H](CCCCN)NC(=O)[C@H](CC(C)C)NC(=O)[C@H](CC(C)C)NC(=O)CNCc1cccc2ccccc12)C(=O)N[C@@H](CCCCN)C(=O)N[C@H](C(=O)N[C@@H](CC(C)C)C(=O)N[C@@H](CC(C)C)C(N)=O)[C@@H](C)O (H-[N(1-naphthylmethyl)Gly]LLKRIKTLL-NH2)	–	–	–	–	–	–	–	–	–	–	–	–	–	25 µM	12.5 µM	> 50 µM
CC[C@H](C)[C@H](NC(=O)[C@H](CCCNC(=N)N)NC(=O)[C@H](CCCCN)NC(=O)[C@H](CC(C)C)NC(=O)[C@H](CC(C)C)NC(=O)CNC(C)C)C(=O)N[C@@H](CCCCN)C(=O)N[C@H](C(=O)N[C@@H](CC(C)C)C(=O)N[C@@H](CC(C)C)C(N)=O)[C@@H](C)O (H-[N(iPr)Gly]LLKRIKTLL-NH2)	–	–	–	–	–	–	–	–	–	–	–	–	–	> 100 µM	> 100 µM	> 50 µM
CC[C@H](C)[C@H](NC(=O)[C@H](CCCNC(=N)N)NC(=O)[C@H](CCCCN)NC(=O)[C@H](CC(C)C)NC(=O)[C@H](CC(C)C)NC(=O)CCN)C(=O)N[C@@H](CCCCN)C(=O)N[C@H](C(=O)N[C@@H](CC(C)C)C(=O)N[C@@H](CC(C)C)C(N)=O)[C@@H](C)O (H-[βAla]LLKRIKTLL-NH2)	–	–	–	–	–	–	128 µM (≈ 149 µg/mL)	8 µM (≈ 9.34 µg/mL)	32 µM (≈ 37.4 µg/mL)	8 µM (≈ 9.34 µg/mL)	128 µM (≈ 149 µg/mL)	128 µM (≈ 149 µg/mL)	> 256 µM	–	–	–
CC[C@H](C)[C@H](NC(=O)[C@H](CCCNC(=N)N)NC(=O)[C@H](CCCCN)NC(=O)[C@H](CC(C)C)NC(=O)[C@H](CC(C)C)NC(=O)CCN)C(=O)N[C@@H](CCCCN)C(=O)NCCC(=O)N[C@@H](CC(C)C)C(=O)N[C@@H](CC(C)C)C(N)=O (H-[βAla]LLKRIK[βAla]LL-NH2)	–	–	–	–	–	–	128 µM (≈ 146 µg/mL)	64 µM (≈ 72.8 µg/mL)	64 µM (≈ 72.8 µg/mL)	64 µM (≈ 72.8 µg/mL)	64 µM (≈ 72.8 µg/mL)	> 128 µM	> 256 µM	–	–	–
